This series in a line: Daily oral administration of DHEA to female users of hormonal oral contraceptives. It counts as in vivo, human. Particulars: daily oral dosage of around 50 mg. From the text: DHEA can be administered by different routes. Unlike various other known androgens, DHEA is orally active. […] Apart from the ability of DHEA to restore and normalize androgen levels, important significant clinical benefits have been observed on several aspects of sexual function (arousability, responsivity, genital sensation, lubrication), mood and menstrual distress symptoms.

The structures appear in SMILES notation.

On to `C[C@]12CC[C@H](O)CC1=CC[C@@H]1[C@@H]2CC[C@]2(C)C(=O)CC[C@@H]12` [DHEA, 3-beta-hydroxyandrost-5-en-17-one], for which the estradiol levels entry is “without increasing estradiol levels”, the “excessively high testosterone levels or clinical symptoms of hyperandrogenicity” value is given as “without causing excessively high testosterone levels or clinical symptoms of hyperandrogenicity”, the “normalization of free testosterone” value is “at least 50%” and the “normalization of total testosterone” value is recorded as “normalizes total testosterone completely”.

Source of the values: patent publication US10179107B2, “Tablet containing dehydroepiandrosterone (DHEA)” (PANTARHEI BIOSCIENCE B.V., priority 2011, dated 2019).
